According to publication PMC9007951, “Systematically evaluating DOTATATE and FDG as PET immuno-imaging tracers of cardiovascular inflammation” (Scientific Reports, 2022):

What was measured:
[1] = Ex vivo autoradiography of heart and aorta; format: in vivo, mice; conditions: for ratio between the signal in infarcted and remote myocardium: MI mice, N = 4 per group
Protocol: Tissues (heart and aorta) were placed in a film cassette against a phosphorimaging plate (BASMS-2325, Fujifilm) at − 20 °C to determine the regional radioactivity distribution. Exposure time was optimized to dose, tracer, and tissue uptake differences. Tissues from the heart of [^18F]F-FDG injected animals were exposed for 5 min, [^18F]F-FDG infused aortas were exposed for 30 min and tissues from animals in the [^64Cu]Cu-DOTATATE group were exposed for 60 min. The plates were read at a pixel resolution of 25 μm with a Typhoon 7000IP plate reader (GE Healthcare, Pittsburgh, PA). Images were analyzed using ImageJ software v1.52 (Madison, WI).

atherosclerotic rabbits = experiment: In vivo PET/MR imaging of aortic inflammation in rabbits; set-up: species or system New Zealand White rabbits; conditions: for SUVmax abdominal aorta: PET/MRI, median
Excerpt: For the rabbit studies, 3 months old male New Zealand White (NZW) rabbits (N = 47) were purchased from Charles River Laboratories (Wilmington, MA). Randomly assigned control rabbits (N = 11) were kept on chow diet and imaged with PET/MR. Among these some animals were euthanized for biodistribution assays (N = 6) or used for time-activity characterization of aorta signal (N = 3). For the atherosclerosis model, remaining rabbits (N = 36) were placed on Western diet (initial 8 weeks on regular chow enriched with 0.3% cholesterol and 4.7% coconut oil, and the remaining time period on 0.15% enriched cholesterol diet from Research diets, Inc. Brunswick, NJ). In order to induce atherosclerotic lesions, these rabbits were subjected to two endothelial denudations of the aorta through the right and left femoral artery at 2 and 6 weeks after diet initiation, respectively, as described previously. Briefly, femoral artery angioplasty was performed under fluoroscopic guidance using a 4F-Fogarty embolectomy catheter. Once catheter is inserted, catheter is positioned in the thoracic descending aorta region. The balloon was then inflated to 2 atm. Catheter is then pulled back over the entire length of the aorta down to the iliac bifurcation, and the pullback procedure is repeated for two additional times. Catheter is then removed, and femoral artery is ligated. Rabbits with atherosclerosis were imaged 4 months after diet initiation (N = 36). Among these animals some were euthanized for ex vivo biodistribution analyses (N = 9), used for time-activity characterization of aorta signal (N = 3) or near infra-red imaging ([…]). The remaining atherosclerotic rabbits were fed a Western diet for an additional 3 months (N = 9) to advance atherosclerosis. At the end of the 3-month period, these rabbits were imaged and euthanized.
In vivo imaging in rabbits was performed on a 3 Tesla Biograph mMR (Siemens, Erlangen, Germany) Positron Emission Tomography/Magnetic Resonance Imaging (PET/MRI) clinical scanner. To establish the optimal imaging time-point for [^68Ga]Ga-DOTATATE aortic imaging in this animal model, 5 rabbits underwent dynamic PET imaging for 3 h immediately after injection of approximately 190 MBq of the tracer. Rabbits where injected intravenously via the ear vein with approximately 190 MBq of either [^18F]F- FDG or [^68Ga]Ga-DOTATATE. Rabbits undergoing [^18F]F-FDG scans were fasted for 3–4 h before injection to avoid tracer uptake in the bowels, as previously validated. […]
Using OsiriX v5.6 software (OsiriX Foundation, Geneva, Switzerland), regions of interest (ROIs) were drawn to determine organ radioactivity concentration. […]

[2] = Blood half-life of [^68Ga]Ga-DOTATATE, gamma counting of venous blood, two-phase decay fit; format: in vivo, New Zealand White rabbits
Protocol: Adopting a translational approach, the rabbit studies were performed with the [^68Ga]Ga-labeled tracer, which is already being used in the clinic. [^68Ga]Ga-DOTATATE was purchased from Advanced Accelerator Applications (AAA, Millburn, NJ, USA). To determine its pharmacokinetics, three atherosclerotic rabbits and two healthy controls were injected with approximately 190 MBq of [^68Ga]Ga-DOTATATE. Venous blood was sampled at 1, 5, 10, 15, 20, 30, 60, 120, 180, 240 and 300 min after injection through the ear vein. Samples were weighed and gamma counted. Blood half-life data were fitted using a two-phase decay non-linear regression using GraphPad Prism v8.4.3 (Supplementary Table S1). To investigate the tracer blood distribution, blood samples were centrifuged at 2000 g for 15 min at 4 °C to determine the radioactivity concentration in the plasma and cellular fractions. To analyze [^68Ga]Ga-DOTATATE biodistribution, all rabbits were euthanized after the last imaging time-point using an injection of pentobarbital 100 mg/kg and exsanguination of the portal vein. Rabbits were extensively perfused with 1000 mL of saline. Following, tissues (blood, heart, aorta, liver, kidney, skeletal muscle, small and large intestine, fat, stomach, pancreas and bladder) were harvested, weighed and gamma counted.

| ratio between the signal in infarcted and remote myocardium [1] | SUVmax abdominal aorta (atherosclerotic rabbits; athero4mo rabbits, circulation 120 min ([^68Ga]Ga-DOTATATE, N = 32) or 180 min ([^18F]F-FDG, N = 27)) | SUVmax abdominal aorta (atherosclerotic rabbits; athero7mo rabbits, N = 7) | SUVmax abdominal aorta (atherosclerotic rabbits; control rabbits, circulation 120 min ([^68Ga]Ga-DOTATATE, N = 10) or 180 min ([^18F]F-FDG, N = 11)) | signal in atherosclerotic plaques compared to healthy (no plaque) areas of the aorta ([1]; atherosclerotic mice, N = 4) | %fast ([2]; athero4mo rabbits, N = 3) | %slow ([2]; athero4mo rabbits, N = 3) | Weighed t1/2 (weighted half-life) ([2]; athero4mo rabbits, N = 3) | t1/2 fast ([2]; athero4mo rabbits, N = 3) | t1/2 slow ([2]; athero4mo rabbits, N = 3) | %fast ([2]; control rabbits, N = 2) | %slow ([2]; control rabbits, N = 2) | Weighed t1/2 (weighted half-life) ([2]; control rabbits, N = 2) | t1/2 fast ([2]; control rabbits, N = 2) | t1/2 slow ([2]; control rabbits, N = 2) | SMILES | change of tracer accumulation (SUVmax abdominal aorta) athero7mo vs athero4mo (atherosclerotic rabbits; rabbits kept on Western Diet for 7 months, paired analysis, N = 7, p > 0.9999) |
| --- | --- | --- | --- | --- | --- | --- | --- | --- | --- | --- | --- | --- | --- | --- | --- | --- |
| ~1 | 0.446 | 0.515 | 0.349 |  |  |  |  |  |  |  |  |  |  |  | OC[C@H]1OC(O)[C@H]([18F])[C@@H](O)[C@@H]1O (some centres unmarked) [[^18F]F-FDG, [^18F]F-fluorodeoxyglucose] |  |
| approximately 2 |  |  |  | twofold higher |  |  |  |  |  |  |  |  |  |  | C[C@@H](O)[C@H](NC(=O)[C@@H]1CSSC[C@H](NC(=O)[C@@H](Cc2ccccc2)NC(=O)CN2CCN(CC(=O)O)CCN(CC(=O)O)CCN(CC(=O)O)CC2)C(=O)N[C@@H](Cc2ccc(O)cc2)C(=O)N[C@H](Cc2c[nH]c3ccccc23)C(=O)N[C@@H](CCCCN)C(=O)N[C@@H]([C@@H](C)O)C(=O)N1)C(=O)O [[^64Cu]Cu-DOTATATE, metal not drawn] |  |
|  |  |  |  |  | 53.17% | 46.83% | 53.66 min | 19.17 min | 92.82 min | 39.7% | 60.3% | 21.17 min | 3.419 min | 32.86 min | C[C@@H](O)[C@H](NC(=O)[C@@H]1CSSC[C@H](NC(=O)[C@@H](Cc2ccccc2)NC(=O)CN2CCN(CC(=O)O)CCN(CC(=O)O)CCN(CC(=O)O)CC2)C(=O)N[C@@H](Cc2ccc(O)cc2)C(=O)N[C@H](Cc2c[nH]c3ccccc23)C(=O)N[C@@H](CCCCN)C(=O)N[C@@H]([C@@H](C)O)C(=O)N1)C(=O)O [[^68Ga]Ga-DOTATATE, metal not drawn] | did not detect a further increase in tracer accumulation |
